# US11945881B2, “Neoantigens expressed in ovarian cancer and their uses” (Janssen Biotech, Inc., priority 2020, dated 2024)
# Experiments:
# CD8+ T cells = assay: exogenous autologous normal donor restimulation assay, TNFα/IFNγ double positive CD8+ T cells by flow cytometry; type: cell-based, human; conditions: for Fold change (CD8+) vs. DMSO: maximum CD8+ T-cell response (TNFα and IFNγ); for Fold change (CD8+) vs. DMSO / Frequency (TNFα + IFNγ + CD8 T cells): donor independent, peptide pool 10 μg/mL, healthy donors; for Frequency (TNFα + IFNγ + CD8 T cells): maximum CD8+ T-cell response; for Immunogenic (yes/no): positive if CD8+ and/or CD4+ double positive TNFα/IFNγ frequency >=3-fold over DMSO and at least 0.01%
# Experimental: (§1) The immunogenicity of neoantigens was assessed using the exogenous autologous normal donor restimulation assay. […] The lyophilized peptides were solubilized in 100% DMSO.
# (§2) CD1c+ Dendritic Cells (CD1c+DC) isolated from human healthy PBMCs were thawed using media (IMDM (Gibco) supplemented with glutamine, HEPES, 5% human serum (Sigma), and 1× Pen-Strep). DC cells were resuspended in media supplemented with IL-4 (Peprotech, 20 ng/mL) and GM-CSF (Gibco, 20 ng/mL), plated in 6 well microplates, and rested overnight at 37° C. and 5% CO2 incubator. The following day, DC cells were counted and plated in a 96 well round bottom microplate at a concentration of 30,000 viable cells per well. Lyophilized neoantigen peptide pools (15-mer peptides with 8-mer overlapping peptide sequences) were solubilized in 100% DMSO with a stock concentration of 20 mg/mL Neoantigen peptides pools were added to DCs for a final concentration of 10 μg/mL and rested for 2 hours at 37° C. and 5% CO2 incubator. CEF Peptide Pool “Plus” (Cellular Technologies, Ltd.) was utilized as a positive control (each viral peptide at a final concentration of 4 ug/ml) and DMSO at the same final concentration (0.05%) as the experimental peptides was utilized as a negative control. After 2 hours, DC cells were irradiated with 50 gray of ionizing radiation. Autologous CD3+ Pan-T cells isolated from human normal PBMCs were thawed using media. Following irradiation, autologous Pan-T cells were added to the irradiated DCs at 300,000 viable cells per well. Human IL-15 (Peprotech) was added to all wells at final concentration of 10 ng/ml. Plates were incubated at 37° C. and 5% CO2 incubator for a total of 12 days. Media was refreshed every 2-3 days with IL-15 (R&D System, 10 ng/mL final concentration) and IL-2 (R&D systems, 10 IU/mL final concentration).
# (§3) On Day 11, cells were re-stimulated with identical experimental peptide pools or controls, at same concentration as peptide stimulation on Day 1. Protein Inhibitor Cocktail (eBioscience) was added to every well and plate was incubated overnight for 14-16 hours at 37° C. and 5% CO2 incubator. On Day 12, cells were stained for surface and intracellular flow cytometry analysis. The cells were washed with PBS and stained with Live/Dead Fixable Aqua Dead Cell stain (Thermo-Fisher). Following the live/dead stain, cells were blocked using Biotin-Fre Fc Receptor Blocker (Accurate Chemical & Scientific Corp). Extracellular cellular flow panel ([…] per well in 50 μL) consisted of CD3 PerCP-Cy5.5 (Biolegend), CD4 BV421 (Biolegend), and CD8 APC-Cy7 (Biolegend). After extracellular staining, cells were fixed and permeabilized using Foxp3/Transcription Factor Staining Buffer Set (eBioscience) and stained for intracellular proteins (1:50 dilution) using TNFα FITC (R&D Systems) and IFNγ BV785 (Biolegend). Cells were washed and resuspended in stain buffer, analyzed, and recorded in a BD Celesta flow cytometer.
# (§4) Flow cytometry analysis was conducted on FlowJo v10.6 software. Cells were gated on live, singlet, CD3+, CD4+ and CD8+ T cells. The CD8+ and CD4+ T cells were analyzed for TNFα and IFNγ expression.
# (§5) The immunogenicity of neoantigens was first investigated in 9-16 healthy donors.
# CD4+ T cells = assay: exogenous autologous normal donor restimulation assay, TNFα/IFNγ double positive CD4+ T cells by flow cytometry; type: cell-based, human; conditions: donor independent, peptide pool 10 μg/mL, healthy donors; for Fold change (CD4+) vs. DMSO: maximum CD4+ T-cell response (TNFα and IFNγ); for Frequency (TNFα + IFNγ + CD4 T cells): maximum CD4+ T-cell response
# Experimental: as §1, §2, §3, §4, §5
Sequence,Fold change (CD8+) vs. DMSO (CD8+ T cells),Frequency (TNFα + IFNγ + CD8 T cells) (CD8+ T cells),Immunogenic (yes/no) (CD8+ T cells),Fold change (CD4+) vs. DMSO (CD4+ T cells),Frequency (TNFα + IFNγ + CD4 T cells) (CD4+ T cells)
"AAEQAGCMQCLI [FUS8, neoantigen, gene fusion TYSND1->AIFM2]",6.27 fold,0.12%,yes,5.93 fold,0.029%
"ALTVVPPGLRLDRVLLHLW [FUS27, neoantigen, gene fusion C17orf99->SYNGR2]",19.77 fold,0.43%,Yes,10.37 fold,0.021%
"AMAKKQRPDTAFWVQH [AS12, neoantigen, alternative splicing of IQGAP3]",6.05 fold,0.13%,Yes,8.4 fold,0.017%
"APILAAIGIGRLLCMDKIPATASLTP [FUS3, neoantigen, gene fusion PTH2R->LOC101927960]",158.8 fold,0.74%,yes,5.02 fold,0.025%
"APSCGVSRAICDRGCH [AS79, neoantigen, alternative splicing of FBN3]",2.88 fold,0.076%,Yes,5.85 fold,0.12%
"CDPAAPRAVSLPGRQGSEGGEGRGLGSRPAVLGRHSSGEGGGPWGELP [AS133, neoantigen, alternative splicing of HRAS]",171.88 fold,0.84%,Yes,54.15 fold,0.16%
"CLRPSLSLASRGFQNP [AS88, neoantigen, alternative splicing of UPK3B]",3.13 fold,0.063%,Yes,15.85 fold,0.062%
"EEDREKYRWMAPFVPGQVWTWEYFL [AS28, neoantigen, alternative splicing of HYDIN]",8.82 fold,0.15%,Yes,12.43 fold,0.17%
"FKIPKFSIVLSSNSAFRCDPLSSRPRCFGGSLEAP [AS27, neoantigen, alternative splicing of GTSE1]",108.36 fold,0.35%,Yes,31.11 fold,0.063%
"FLIVAEIVTLLIAFI [FUS20, neoantigen, gene fusion CMTM8->CMTM7]",28.23 fold,0.54%,Yes,2.36 fold,0.019%
"FQETWLAEDAAAGALSPCTIPTPPQPPLLSLPTSSGTRQ [AS97, neoantigen, alternative splicing of ETV4]",433.66 fold,1.34%,Yes,6.12 fold,0.15%
"GDPAKVVEIPRLL [AS31, neoantigen, alternative splicing of MECR]",4.54 fold,0.045%,Yes,6.91 fold,0.016%
"GFILIGWGAGNLVLETSSGFIKHRS [AS69, neoantigen, alternative splicing of PTH2R]",260.42 fold,1%,Yes,9.21 fold,0.011%
"GGLTLGARNTLTHGSPGPSQATVAVAPLSGRAAVSAAGGCVFLLLPACVPRRCHWIP [FUS16, neoantigen, gene fusion NDUFA11->FUT5]",261.6 fold,5.69%,yes,12.58 fold,0.045%
"GTMEVKSKKKQTTVPLVQTR [AS67, neoantigen, alternative splicing of PARD6B]",6.36 fold,0.17%,Yes,3.15 fold,0.028%
"HFECYHCEIRIPRKSNGIRGFLLTWRRDGNTSTSVQQTTSSL [FUS11, neoantigen, gene fusion AJUBA->HAUS4]",3.3 fold,0.071%,yes,39.13 fold,0.14%
"HFSRLCGPVSHLSAHLAHLR [AS119, neoantigen, alternative splicing of SMAD6]",1.32 fold,0.037%,Yes,4.17 fold,0.027%
"IGKGSFGKFLEDATHMV [AS36, neoantigen, alternative splicing of STK32C]",7.44 fold,0.45%,Yes,3.36 fold,0.04%
"IPPHLQWESTRQTEWISVREFHLESSLYP [AS61, neoantigen, alternative splicing of IGF2BP3]",4.86 fold,0.13%,Yes,4.26 fold,0.038%
"KHHLWALEAAWLSGRSPLSEPQLPLQPSGNSSSV [AS120, neoantigen, alternative splicing of STRA6]",6.24 fold,0.067%,Yes,2.01 fold,0.013%
"KLCSRQRPDCQPVDSRHGPILSIQHLISALHTGDG [AS123, neoantigen, alternative splicing of VWA2]",115.04 fold,1.09%,yes,3.7 fold,0.024%
"KNFITCFKGGHASAAEPRKGR [FUS22, neoantigen, gene fusion C8orf82->LRRC24]",8.05 fold,0.087%,Yes,8.67 fold,0.31%
"KRPMASEVSFILIQWLLKP [AS146, neoantigen, alternative splicing of PIP5K1A]",24.2 fold,0.26%,Yes,8.88 fold,0.037%
"LASGVPPPGLPWGPGPHLG [AS60, neoantigen, alternative splicing of HMCN2]",265.02 fold,1.9%,Yes,4.3 fold,0.019%
